Patent US20170027902A1, “Use of a Composition Comprising a Flavonol, A Flavonoid, and a Fatty Acid in the Treatment of Oxidative Injuries Due to Mitochondrial Dysfunction” (priority 2014, published 2017)

Tested on: primary cultures of mouse cortical neurons
Assay: Oxygen glucose deprivation (OGD), cell viability by MTT assay
Assay type: cell-based
Conditions: for reduction in OGD-induced neuronal cell death / loss of cell viability (increase in neuronal survival): pretreatment 24 hrs before OGD (3 hrs), MTT 24 hrs after OGD; for reduction of loss in cell viability after OGD: treatment 0.5 hrs before OGD, 1 μg/ml, viability 24 hrs later
Experimental: Embryonic day 16 timed pregnant CD1 out-bred mice were obtained from Charles River Laboratories (Charles River; QC, Canada). Primary cortical neuron cultures were prepared from cerebral cortices of wild type (WT) CD1 mouse embryos as described previously, with the following modifications. Pregnant CD1 females were heavily anaesthetized with isoflurane vapor (Benson Medical Industries, Inc., Markham, ON) before being euthanized by decapitation. The embryonic day 16 (E16) fetuses were immediately removed from the sacrificed pregnant females by cesarean section and placed in ice-cold Hank's Balanced Salt Solution (HBSS) (GIBCO; Invitrogen, Amarillo, Calif.). The meninges were removed from the brains and cortices were isolated under a dissecting microscope. The cortices from each embryo were placed in individual wells of a 24-well plate (Corning; Lowell, Mass.), containing 1 ml of ice-cold PBS (GIBCO; […] Under sterile conditions, the tissue was briefly minced, transferred to 15 ml sterile conical tubes (Corning; Lowell, Mass.) and centrifuged at 350×g for 3 min at room temperature. The dissecting solution was discarded and the cortical neurons were then dissociated trituration with fire-polished glass pipettes followed by incubating in 1 ml of 0.1% trypsin solution (0.1% w/v trypsin (Invitrogen, Amarillo, Calif.) in PBS with 1 mM Mg^2+ and 13 mM glucose) at 37° C. for 15 min. The trypsinization was inhibited by the addition of 0.5 ml of trypsin inhibitor solution that also contained DNase I (0.06% w/v trypsin inhibitor (Invitrogen; Amarillo, Calif.) and 0.01% DNase I (Invitrogen; […] The tubes were mixed briefly and the cells were centrifuged at 350×g for 3 min at room temperature. The trypsin and inhibitor solutions were discarded and each cell pellet was suspended in 1 ml of cortical neuron plating medium (Neurobasal medium (Invitrogen, Amarillo, Calif.) with 10% fetal bovine serum (GIBCO; Invitrogen; Amarillo, Calif.), 2% B27 supplement, 1 mM L-glutamine, and 1% Gentamycin (Invitrogen; […] Cortical neurons were plated in 96-well plates (Corning; Lowell, Mass.) that were pre-coated with poly-D-lysine (PDL; Sigma-Aldrich; Oakville, ON) according to the procedure described by the manufacturer. Briefly, plates were coated immediately before use with 100 μg/ml PDL for 5-10 min (50 μl/well), washed three times with tissue-culture grade water and left to dry for 2 h before cells were introduced. Cortical neurons were plated at a concentration of 1×10^6 cells/ml (100 µl/well) and medium was completely changed the day after plating to serum-free cortical neuron medium (Neurobasal medium with 2% B27 supplement, 5 mM HEPES, 0.5 mM L-glutamine, and 20 μg/ml Gentamycin), which was replaced every 3 days in culture. Cultures were maintained in a humidified, 37° C. incubator with 5% CO2. Experiments were performed on the eighth day in vitro (DIV10). […] Glucose-free medium (glucose-free Dulbecco's Modified Eagle Medium (GBSS, Invitrogen; Amarillo, Calif.) containing either epicatechin or quercetin or epicatechin plus quercetin at concentration of 1 μg/ml or 3 μg/ml or the corresponding DMSO control (0.02% DMSO) was placed in a 96-well plate and equilibrated to 0% oxygen in a modular chamber incubator (Billups-Rothenberg; Del Mar, Calif.). The chamber was flushed for 4 min at 20 l/min with an anoxic gas mixture (5% CO2 and Balanced […]; Dartmouth, NS) using a step-down pressure system and placed in a humidified, 37° C. incubator for 12 h. Cortical neuron medium was replaced with OGD-medium (anoxic and glucose-free) and the cultures were placed in the modular chamber incubator. The chamber was flushed again with anoxic gas and placed inside a humidified, 37° C. incubator for 3 hrs. […] Cell viability was assessed 24 hours after the completion of OGD. The culture media was exchanged for MEM media without phenol red containing 0.5 mg/ml MTT (3-[4,5-dimethylthiazol-2-yl]-2,5-diphenyltetrazolium bromide). […]

[1] = 1 μg/ml total flavonoid (~3 μM; E+Q 0.5 μg/ml each)
[2] = 3 μg/ml total flavonoid (~10 μM; E+Q 1.5 μg/ml each)

In the case of `O=c1c(O)c(-c2ccc(O)c(O)c2)oc2cc(O)cc(O)c12` [Q], the “reduction in OGD-induced neuronal cell death / loss of cell viability (increase in neuronal survival)” value [1] is reported as “failed to protect”, the “reduction in OGD-induced neuronal cell death / loss of cell viability (increase in neuronal survival)” value [2] is reported as “modestly reduced the loss in cell viability” and the “reduction in OGD-induced neuronal cell death / loss of cell viability (increase in neuronal survival)” value (3 μg/ml total flavonoid (~10 μM; E+Q 1.5 μg/ml each), listed as quercetin) is reported as 30%. For the same compound, the “reduction of loss in cell viability after OGD” value was “did not reduce the loss in cell viability”.
In the case of `Oc1cc(O)c2c(c1)O[C@H](c1ccc(O)c(O)c1)[C@H](O)C2` [E, (2R,3R)-2-(3,4-dihydroxyphenyl)-3,4-dihydro-2H-chromene-3,5,7-triol], the “reduction in OGD-induced neuronal cell death / loss of cell viability (increase in neuronal survival)” value [1] is reported as “modestly reduced the loss in cell viability”, the “reduction in OGD-induced neuronal cell death / loss of cell viability (increase in neuronal survival)” value (1 μg/ml total flavonoid (~3 μM; E+Q 0.5 μg/ml each), listed as Epicatechin) is reported as 30% and the “reduction in OGD-induced neuronal cell death / loss of cell viability (increase in neuronal survival)” value [2] is reported as “protected”. The “reduction of loss in cell viability after OGD” value was “did not reduce the loss in cell viability”.
